Key:
Format in all cases: cell-based, human
MCF10A cells = test: WST-8 cell viability assay, normal cell line MCF10A; settings: 3.70, 11.11, 33.33 and 100 μM, FIG. 6
Method: (§1) In addition, the cell line in this experiment was distributed from ATCC (American Type Culture Collection; Manassas, VA). Human-derived tumor cell lines, breast cancer cell lines MCF7 and T47D was cultured in DMEM medium containing 10% fetal bovine serum (FBS; HyClone, South Logan, UT) and 1% penicillin/streptomycin (Corning, NY, USA) at 37° C. and 5% CO2, and the BT549 breast cancer cell line was cultured in RPMI 1640 (Welgene, Daegu, Korea) as a medium used under the same conditions. Human-derived normal cell line MCF10A was cultured in DMEM/F12 (Invitrogen) medium containing 5% horse serum (Invitrogen), 1% penicillin/streptomycin, 20 ng/ml EGF (Peprotech, London, UK), […] (Sigma-Aldrich, MO, USA), 100 ng/ml cholera toxin (Cholera Toxin, Sigma-Aldrich) and 10 μg Insulin (Sigma-Aldrich) at 37° C. and 5% CO2.
(§2) Briefly, MCF7 and MCF10A cells were seeded into 96-well plates, incubated for 24 hours, and then was treated with 42 inhibitor candidates. Among the compounds, the multi-AGC kinase inhibitor AT13148 was used as a positive control. Thereafter, the absorbance was measured at 450 nm using a Versamax microplate reader (Molecular Devices, CA, USA), and the results of the experiment were shown in FIG. 1A.
(§3) In order to confirm whether the selected MKI-1 can kill only cancer cells, an experiment was performed by treating with MKI-1 and measuring whether the cell viability of breast cancer cell lines and normal cell lines was changed. WST-8 analysis (Cyto X™ cell viability assay kit, LPS solution, Daejeon, Korea) was performed according to the manufacturer's protocol. Cancer cells MCF7 and BT549 and normal cell line MCF10A cells were inoculated into a 96-well plate, cultured for 24 hours, and then treated with MASTL kinase inhibitors at various concentrations (3.70, 11.11, 33.33 and 100 μM). Thereafter, the absorbance was measured at 450 nm using a Versamax micro plate reader (Molecular Devices, CA, USA), and the results were shown in FIG. 6.

AKT = test: Western blotting of AKT and GSK-3 phosphorylation in MCF7 cells; settings: western blot, FIG. 5
Method: 20 μg of protein was separated by SDS-PAGE electrophoresis and transferred to a PVDF membrane, and the following specific antibodies were used: rabbit polyclonal antibody MASTL (Abgent); phospho-ENSA (Ser67)/ARPP19 (Ser62) (#5240), ENSA (#11915S), cleaved PARP (Asp214) (#9541), AKT (#9272), phospho-AKT (ser473) (#9271), phospho-GSK-3α/β (Ser21/9) (#9331), phospho-p70S6K (The 288) (#9205) and phospho-Chk2 (Thr68) (#2661; Cell Signaling Technology, MA); p70S6K (sc-230; Santa Cruz Biotechnology, CA, USA), phospho-H3 (S10) (06-570, Merck, NJ); mouse monoclonal antibody caspase-2 (#2224S). In addition, mouse […] antibody β-actin (C4; Santa Cruz Biotechnology, CA, USA) was used as a loading control, it was washed with 1×PBS/0.1% Tween 20, and the binding protein was detected using HRP-binding secondary antibody and improved chemiluminescence detection system. The remaining conditions of Western blotting were the same as in Example 3, and the image of the band was obtained by Amersham Imager 600 system (GE Healthcare Life Science) or X-Ray film (AG, HealthCare, SC, USA) and it was shown in FIG. 5.

BT549 cells = test: WST-8 cell viability assay, breast cancer cell line BT549; settings: 3.70, 11.11, 33.33 and 100 μM, FIG. 6
Method: as §1, §3

MCF7 cells [1] = test: Colony formation analysis; settings: MCF7, cultured 15 days, compared to DMSO, FIG. 7
Method: Colony formation analysis was performed to confirm whether the selected MKI-1 can effectively kill cancer cells. First, breast cancer cells MCF7 (500-1000 cells) were cultured in a 60 mm culture plate, and after 24 hours, it was treated with MASTL kinase inhibitors (AT13148, MKI-1 and GKI-1), respectively and cultured for 15 days. Cells were fixed and stained with […] to which methanol was added to quantify the number of colonies, which was shown in FIG. 7.

MCF7 cells [2] = test: WST-8 cell viability assay, breast cancer cell line MCF7; settings: 3.70, 11.11, 33.33 and 100 μM, FIG. 6
Method: as §1, §2, §3

MCF7 cells [3] = test: Tumorsphere formation assay; settings: MCF7, cultured 15 days, compared to DMSO, FIG. 8
Method: A tumorsphere formation assay was performed in order to determine whether the selected MKI-1 can effectively reduce the formation of tumorsphere in cancer cells, Breast cancer cells MCF7 (2500-10000 cells) was suspended in serum-free DMEM/F12 (weIGENE) containing 1% penicillin, B-27 (1:50; invitrogen), 20 ng/mL epidermal cell growth factor (R&D Systems) and 20 ng/mL fibroblast growth factor (R&D Systems) and cultured on plates with low adhesion rate. After 24 hours, the cells were treated with MASTL kinase inhibitors (AT13148, MKI-1 and GKI-1), respectively, and cultured for 15 days, and then the diameter of the tumorsphere was measured and quantified, which was shown in FIG. 8.

MCF7 cells [4] = test: 3D culture spheroid formation; settings: MCF7 3D culture, AT13148 2 μM, GKI-1 10 μM, MKI-1 10 μM, FIG. 9
Method: 3D culture was performed according to the protocol of the manufacturing company TheWell Bioscience. It was inoculated into 24-wells containing a DMEM mixture containing 10,000 MCF7 cells in an MCF7 cell:hydrogel solution in a ratio of 1:3 (v/v) and VitroGel™ 3D-RGD diluted with 0.1% PBS in a ratio of 1:3 (v/v) of a hydrogel:diH2O. Thereafter, incubation was performed at 37° C. for 15 minutes to stabilize the VitroGel 3D-RGD hydrogel. To cover the hydrogel, the same volume of DMEM as the hydrogel was added, and the next day, the hydrogel was treated with a DMSO base drug containing DMSO, AT13148 (2 μM), GKI-1 (10 μM) and MKI-1 (10 μM). The medium was exchanged every 2 days for 14 to 20 days.

## NC[C@@](O)(c1ccc(Cl)cc1)c1ccc(-c2cn[nH]c2)cc1 [AT13148, reference compound]
MCF10A cells
  cell viability, normal cell line MCF10A: drastically reduced cell viability
AKT
  activation of AKT / phosphorylated GSK-3: strongly inhibited the activation of AKT
BT549 cells
  cell viability, BT549: drastically reduced cell viability
MCF7 cells [1]
  number of cancer cell colonies: significantly reduced
MCF7 cells [2]
  cell viability, MCF7: drastically reduced cell viability
MCF7 cells [3]
  tumorsphere diameter: significantly decreased
MCF7 cells [4]
  size of cancer cell spheroid: significantly reduced

— patent US12029730B2, “Pharmaceutical composition for preventing or treating cancer, containing N-1H-benzimidazol-2-yl-3-(1H-pyrrole-1-yl)benzamide as active ingredient” (KOREA INSTITUTE OF RADIOLOGICAL & MEDICAL SCIENCES, priority 2018, dated 2024)
